From patent publication US7994140B2, “Classes of compounds that interact with GPCRs” (Alchemia Limited, priority 2002, dated 2011)

These compounds were tested against T1, SST5 (Homo sapiens, UniProt P35346) (assay: GPCR radioligand binding (RLB) assay, somatostatin SST5, [125I]SST-14). Details: 10 micromolar compound; recombinant human receptor membranes (HEK 293).
T1 construct: purchased Perkin Elmer BioSignal; host or cells: HEK 293
Protocol: Recombinant human receptors expressed in HEK 293 cells were used for all experiments. Receptor membrane preparations were purchased from Perkin Elmer BioSignal. The labelled ligand used in somatostatin GPCR RLB assays was [^125I]SST-14 and in melanocortin assays was [^125I]NDP-αMSH. All assays were done in a 96-well plate format using either glass fiber filter mats or filter plates. All reagents purchased were of the highest quality.
Specific assay buffer, incubation and washing conditions were optimized for each receptor however they all followed the same general format. The procedures for both filter mat and filter plate formats are based on the receptor manufacturers recommendations or those described extensively in the literature. The procedures are briefly outlined below.
In assays where filter mats are used we incubate receptor membranes, assay buffer and [^125I] labelled ligand in 96 well microplates. Add compounds to incubation mixture and continue incubation for optimized period. Presoak Filter mat GF/B in 0.5% PEI for ˜2 hr at 4° C. On completion of assay mixture incubation add additional 100 μL/well of assay buffer immediately prior to filtration. Filter the assay mixture onto the GF/B filter mat using a cell harvester. Dry the filter mats prior to sealing them into a scintillation counting bag with scintillant. Radioactivity in each well is detected by liquid scintillation counting.
In assays where filter plates are used Multiscreen glass fiber filter plates (Millipore, Cat No MAFCNOB10) are precoated with 0.5% PEI for ˜2 hr at 4° C. All wells are then washed with 200 µl/well assay buffer and filtered using the Multiscreen Separation System. Subsequently receptor membranes, assay buffer and labelled ligands are added to the wells and equilibrated. Compounds for testing are then added to the mixture and incubation is continued for an optimized time. Plates are then put into the Multiscreen Separation System and the assay mixture is filtered through the plate under vacuum. Each well is then washed several times with assay buffer. Plates are then dried prior to putting sealing tape onto the bottom of the plate. Scintillant is added to each well and radioactivity measured by liquid scintillation counting.
Raw data was analysed according to standard methods using either GraphPad Prism software or IDDBS ActivityBase software.

T1 sequence (P35346 whole entry): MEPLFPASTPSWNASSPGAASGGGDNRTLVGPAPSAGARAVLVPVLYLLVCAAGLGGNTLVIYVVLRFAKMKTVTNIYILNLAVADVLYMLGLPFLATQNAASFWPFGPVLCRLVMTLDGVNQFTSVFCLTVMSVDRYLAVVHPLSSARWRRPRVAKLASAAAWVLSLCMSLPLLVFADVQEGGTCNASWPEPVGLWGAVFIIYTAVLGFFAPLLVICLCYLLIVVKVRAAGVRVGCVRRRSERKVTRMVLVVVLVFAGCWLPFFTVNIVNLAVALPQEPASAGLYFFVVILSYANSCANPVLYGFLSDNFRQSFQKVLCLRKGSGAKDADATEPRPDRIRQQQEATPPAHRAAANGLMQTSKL

| SMILES | SST5 inhibition at 10 micromolar |
| --- | --- |
| COC[C@H]1OC(OCc2ccc(-c3ccccc3)cc2)[C@H](NC(=O)CCNC(=N)N)[C@@H](OCc2ccc3ccccc3c2)[C@@H]1O (some centres unmarked) [Compound 2] | + (Indicates inhibition greater than . . . 50%) |
| COC[C@H]1OC(OCc2ccc(-c3ccccc3)cc2)[C@H](NC(=O)CCCN)[C@@H](OCc2ccccc2)[C@@H]1O (some centres unmarked) [Compound 3] | + (Indicates inhibition greater than . . . 50%) |
| COC[C@H]1OC(OCc2ccc3ccccc3c2)[C@H](NC(=O)CCCN)[C@@H](OCc2ccccc2)[C@@H]1O (some centres unmarked) [Compound 4] | + (Indicates inhibition greater than . . . 50%) |
| COC[C@H]1OC(OCc2ccccc2)[C@H](NC(=O)CCCN)[C@@H](OCc2ccc(-c3ccccc3)cc2)[C@@H]1O (some centres unmarked) [Compound 7] | + (Indicates inhibition greater than . . . 50%) |
| COC[C@H]1OC(OCc2ccccc2)[C@H](NC(=O)CCCNC(=N)N)[C@@H](OCc2ccc(-c3ccccc3)cc2)[C@@H]1O (some centres unmarked) [Compound 8] | + (Indicates inhibition greater than . . . 50%) |
| COC[C@H]1OC(OCc2ccccc2)[C@H](NC(=O)CCCN)[C@@H](OCc2ccccc2)[C@@H]1O (some centres unmarked) [Compound 9] | + (Indicates inhibition greater than . . . 50%) |
| COC[C@H]1OC(OCc2ccccc2)[C@H](NC(=O)CCNC(=N)N)[C@@H](OCc2ccc(Cl)cc2)[C@@H]1O (some centres unmarked) [Compound 10] | + (Indicates inhibition greater than . . . 50%) |
| COC[C@H]1OC(OCc2ccccc2)[C@H](NC(=O)CCCN)[C@@H](OCc2ccc(Cl)cc2)[C@@H]1O (some centres unmarked) [Compound 11] | + (Indicates inhibition greater than . . . 50%) |
| COC[C@H]1OC(OCc2ccccc2)[C@H](NC(=O)CCCNC(=N)N)[C@@H](OCc2ccc(Cl)cc2)[C@@H]1O (some centres unmarked) [Compound 12] | + (Indicates inhibition greater than . . . 50%) |
| COC[C@H]1OC(OCc2ccc(Cl)cc2)[C@H](NC(=O)CCCN)[C@@H](OCc2ccccc2)[C@@H]1O (some centres unmarked) [Compound 16] | + (Indicates inhibition greater than . . . 50%) |
| COC[C@H]1OC(OCc2ccc(Cl)cc2)[C@H](NC(=O)CCNC(=N)N)[C@@H](OCc2ccc(Cl)cc2)[C@@H]1O (some centres unmarked) [Compound 17] | + (Indicates inhibition greater than . . . 50%) |
| COC[C@H]1OC(OCc2ccc(Cl)cc2)[C@H](NC(=O)CCCNC(=N)N)[C@@H](OCc2ccc(Cl)cc2)[C@@H]1O (some centres unmarked) [Compound 18] | + (Indicates inhibition greater than . . . 50%) |
| COC[C@H]1OC(OCc2cccc(O)c2)[C@H](NC(=O)CCNC(=N)N)[C@@H](OCc2ccc(-c3ccccc3)cc2)[C@@H]1O (some centres unmarked) [Compound 21] | + (Indicates inhibition greater than . . . 50%) |
| COC[C@H]1OC(OCc2ccc(-c3ccccc3)cc2)[C@H](NC(=O)CCCN)[C@@H](OCc2cccc(O)c2)[C@@H]1O (some centres unmarked) [Compound 22] | + (Indicates inhibition greater than . . . 50%) |
| COC[C@H]1OC(OCc2ccc3ccccc3c2)[C@H](NC(=O)CCCN)[C@@H](OCc2cccc(O)c2)[C@@H]1O (some centres unmarked) [Compound 23] | + (Indicates inhibition greater than . . . 50%) |
| COC[C@H]1OC(OCc2ccc3ccccc3c2)[C@H](NC(=O)CCCNC(=N)N)[C@@H](OCc2cccc(O)c2)[C@@H]1O (some centres unmarked) [Compound 24] | + (Indicates inhibition greater than . . . 50%) |
| COC[C@H]1OC(OCc2ccccc2)[C@H](NC(=O)CCCN)[C@@H](OCc2cccc(O)c2)[C@@H]1O (some centres unmarked) [Compound 25] | + (Indicates inhibition greater than . . . 50%) |
| COC[C@H]1OC(OCc2ccc(Cl)cc2)[C@H](NC(=O)CCCN)[C@@H](OCc2cccc(O)c2)[C@@H]1O (some centres unmarked) [Compound 26] | + (Indicates inhibition greater than . . . 50%) |
| COC[C@H]1OC(OCCc2ccccc2)[C@H](NC(=O)CCCN)[C@@H](OCc2cccc(O)c2)[C@@H]1O (some centres unmarked) [Compound 27] | + (Indicates inhibition greater than . . . 50%) |
| COC[C@H]1OC(OCc2ccc(-c3ccccc3)cc2)[C@H](NC(=O)CCNC(=N)N)[C@@H](OCc2ccccc2)[C@@H]1O (some centres unmarked) [Compound 31] | + (Indicates inhibition greater than . . . 50%) |
| COC[C@H]1OC(OCc2ccc3ccccc3c2)[C@H](NC(=O)CCCNC(=N)N)[C@@H](OCc2ccccc2)[C@@H]1O (some centres unmarked) [Compound 41] | + (Indicates inhibition greater than . . . 50%) |
| COC[C@H]1OC(OCc2ccc3ccccc3c2)[C@H](NC(=O)CCCN)[C@@H](OCc2ccc(Cl)cc2)[C@@H]1O (some centres unmarked) [Compound 42] | + (Indicates inhibition greater than . . . 50%) |
| COC[C@H]1OC(OCc2ccc(Cl)cc2)[C@H](NC(=O)CCCN)[C@@H](OCc2ccc(-c3ccccc3)cc2)[C@@H]1O (some centres unmarked) [Compound 44] | + (Indicates inhibition greater than . . . 50%) |

These compounds were tested against T2, MC4 (Homo sapiens, UniProt P32245) (assay: GPCR radioligand binding (RLB) assay, melanocortin MC4, [125I]NDP-αMSH). Details: 1.0 micromolar compound.
T2 construct: purchased Perkin Elmer BioSignal; host or cells: HEK 293
T2 sequence (P32245 whole entry): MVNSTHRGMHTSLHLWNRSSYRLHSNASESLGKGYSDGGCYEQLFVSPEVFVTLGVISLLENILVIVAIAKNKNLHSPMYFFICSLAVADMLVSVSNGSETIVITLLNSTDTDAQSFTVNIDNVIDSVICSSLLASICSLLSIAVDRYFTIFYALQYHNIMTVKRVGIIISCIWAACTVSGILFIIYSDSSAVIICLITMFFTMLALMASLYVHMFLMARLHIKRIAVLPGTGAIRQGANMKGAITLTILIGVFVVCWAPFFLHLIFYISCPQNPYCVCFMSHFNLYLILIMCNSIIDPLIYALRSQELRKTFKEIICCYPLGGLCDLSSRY
How it was run: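 Competition binding against radioligand ([125I]NDP-αMSH for MC4, [125I]SST-14 for SST5) on membranes of HEK 293 cells carrying the human receptor; buffer and incubation time optimized per receptor. Filtration through 0.5% PEI-treated glass fiber, washing, then scintillation counting.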

| SMILES | MC4 Inhibition at 1.0 Micromolar |
| --- | --- |
| CC(=O)N[C@H]1C(NC(=O)CCN)O[C@H](CO)[C@@H](O)[C@@H]1OCc1ccccc1 (some centres unmarked) [Compound 498] | + (Indicates inhibition greater than . . . 50%) |
| CC(=O)N[C@H]1C(NC(=O)CCN)O[C@H](CO)[C@@H](O)[C@@H]1OCc1ccc(C)cc1 (some centres unmarked) [Compound 499] | + (Indicates inhibition greater than . . . 50%) |
| CC(=O)N[C@H]1C(NC(=O)CCN)O[C@H](CO)[C@@H](O)[C@@H]1OCc1cccc2ccccc12 (some centres unmarked) [Compound 500] | + (Indicates inhibition greater than . . . 50%) |
| CC(=O)N[C@H]1C(NC(=O)CCN)O[C@H](CO)[C@@H](O)[C@@H]1OCc1ccc(-c2ccccc2)cc1 (some centres unmarked) [Compound 501] | + (Indicates inhibition greater than . . . 50%) |
| NCCC(=O)NC1O[C@H](CO)[C@@H](O)[C@H](OCc2ccccc2)[C@H]1NC(=O)c1ccccc1 (some centres unmarked) [Compound 502] | + (Indicates inhibition greater than . . . 50%) |
| NCCC(=O)NC1O[C@H](CO)[C@@H](O)[C@H](OCc2ccc(Cl)cc2)[C@H]1NC(=O)c1ccccc1 (some centres unmarked) [Compound 503] | + (Indicates inhibition greater than . . . 50%) |
| Cc1ccc(CO[C@H]2[C@H](O)[C@@H](CO)OC(NC(=O)CCN)[C@@H]2NC(=O)c2ccccc2)cc1 (some centres unmarked) [Compound 504] | + (Indicates inhibition greater than . . . 50%) |
| NCCC(=O)NC1O[C@H](CO)[C@@H](O)[C@H](OCc2cccc3ccccc23)[C@H]1NC(=O)c1ccccc1 (some centres unmarked) [Compound 505] | + (Indicates inhibition greater than . . . 50%) |
| NCC(=O)NC1O[C@H](CO)[C@@H](O)[C@H](OCc2ccccc2)[C@H]1NC(=O)c1ccccc1 (some centres unmarked) [Compound 506] | + (Indicates inhibition greater than . . . 50%) |
| NCC(=O)NC1O[C@H](CO)[C@@H](O)[C@H](OCc2ccc(Cl)cc2)[C@H]1NC(=O)c1ccccc1 (some centres unmarked) [Compound 507] | + (Indicates inhibition greater than . . . 50%) |

Same assay, conditions: 4.0 Micromolar; Example Library 13

| SMILES | MC4 Inhibition at 4.0 Micromolar |
| --- | --- |
| N=C(N)NCCC(=O)NC1C(OCc2ccc(Cl)cc2)OC(COCc2ccc(Cl)cc2)C(O)C1OCc1ccc(Cl)cc1 (centres unmarked) [Compound 490] | + (Indicates inhibition greater than . . . 50%) |
| N=C(N)NCCC(=O)NC1C(OCc2ccc(Cl)cc2)OC(COCc2ccc3ccccc3c2)C(O)C1OCc1ccc2ccccc2c1 (centres unmarked) [Compound 491] | + (Indicates inhibition greater than . . . 50%) |
| N=C(N)NCCC(=O)NC1C(OCc2ccc(Cl)cc2)OC(COCc2ccccc2)C(O)C1OCc1ccc2ccccc2c1 (centres unmarked) [Compound 492] | + (Indicates inhibition greater than . . . 50%) |
| N=C(N)NCCC(=O)NC1C(OCc2ccc(Cl)cc2)OC(COCc2ccc(Cl)cc2)C(O)C1OCc1ccc2ccccc2c1 (centres unmarked) [Compound 493] | + (Indicates inhibition greater than . . . 50%) |
| N=C(N)NCCC(=O)NC1C(OCc2ccc(Cl)cc2)OC(COCc2ccc3ccccc3c2)C(O)C1OCc1ccc(-c2ccccc2)cc1 (centres unmarked) [Compound 494] | + (Indicates inhibition greater than . . . 50%) |
| N=C(N)NCCC(=O)NC1C(OCc2ccc(Cl)cc2)OC(COCc2ccccc2)C(O)C1OCc1ccc(-c2ccccc2)cc1 (centres unmarked) [Compound 495] | + (Indicates inhibition greater than . . . 50%) |
| N=C(N)NCCC(=O)NC1C(OCc2ccc(Cl)cc2)OC(COCc2ccc(Cl)cc2)C(O)C1OCc1ccc(-c2ccccc2)cc1 (centres unmarked) [Compound 496] | + (Indicates inhibition greater than . . . 50%) |
| N=C(N)NCCCC(=O)NC1C(OCc2ccc(-c3ccccc3)cc2)OC(COCc2ccccc2)C(O)C1OCc1ccccc1 (centres unmarked) [Compound 497] | + (Indicates inhibition greater than . . . 50%) |
